Legend:
[1] = molecular target: T1, LOX (lipoxygenase); experiment: lipoxygenase inhibition assay (Matczak et al.); assay type: biochemical; conditions: eight-point curve; read-out: LOX / IC50 (mg GAE/mL; mM) ^b
T1 construct: gene LOX1.1
Description: lipoxygenase inhibition assay (Matczak et al.) on LOX (lipoxygenase)

[2] = molecular target: T2, HYAL (hyaluronidase); experiment: hyaluronidase inhibition assay (Matczak et al.); assay type: biochemical; conditions: eight-point curve; read-out: HYAL / IC50 (μg GAE/mL; μM) ^b
T2 construct: gene SPAM1
Description: hyaluronidase inhibition assay (Matczak et al.) on HYAL (hyaluronidase)

IC50 [1] [mM] | IC50 [2] [µM] | Structure (SMILES)
0.3 ± 0.02 | 36.1 ± 2.68 | C[C@@H]1C[C@H]2[C@@H]3CCC4=CC(=O)C=C[C@]4(C)[C@@]3(F)[C@@H](O)C[C@]2(C)[C@@]1(O)C(=O)CO [DEX]
1.26 ± 0.04 | 64 ± 2.87 | COC(=O)c1ccccc1O[C@@H]1O[C@H](CO[C@@H]2OC[C@@H](O)[C@H](O)[C@H]2O)[C@@H](O)[C@H](O)[C@H]1O [compound 18, methyl salicylate 2-O-(6′-O-β-D-xylopyranosyl)-β-D-glucopyranoside]
0.3 ± 0.02 | 102 ± 6.09 | O=c1c(O)c(-c2ccc(O)c(O)c2)oc2cc(O)cc(O)c12 [compound 39, QU]
0.26 ± 0.01 | 35.7 ± 5.34 | COc1ccc2c(c1)c(CC(=O)O)c(C)n2C(=O)c1ccc(Cl)cc1 [IND]
0.29 ± 0.03 | 37.4 ± 1.78 | Oc1cc(O)c2c(c1)O[C@H](c1ccc(O)c(O)c1)[C@H](O)[C@H]2c1c(O)cc(O)c2c1O[C@H](c1ccc(O)c(O)c1)[C@H](O)C2 [PB2]

— publication PMC6479601, “Salicylate and Procyanidin-Rich Stem Extracts of Gaultheria procumbens L. Inhibit Pro-Inflammatory Enzymes and Suppress Pro-Inflammatory and Pro-Oxidant Functions of Human Neutrophils Ex Vivo” (International Journal of Molecular Sciences, 2019)
